In patent US10704076B2, “Multi-tiered high through-put screen for compounds effective against bacterial biofilm and compounds effective for inhibiting and eradicating bacterial biofilm” (University of Cincinnati, priority 2013, dated 2020):

System: differentiated THP-1 cells
Test: LDH cytotoxicity assay
Assay type: cell-based
Settings: 48 hr
Procedure: Following identification as an HTS broad spectrum hit and confirmation by CLSM, a cytotoxicity assay was performed on compounds 3, 7, 8 and 11. The lactate dehydrogenase assay (LDH) is commonly used as an enzymatic marker to quantitatively correlate cell death via leakage of the enzyme from dead or dying cells. An LDH assay was used to investigate the toxicity of compounds on A549 and differentiated THP-1 cells. […] Finally, 25 μl of Stop Solution was added, incubated at room temperature for 5 min, and the fluorescence signal was detected using a Synergy 2 Multi-Mode Microplate Reader (Ex. […]/Em. 590). The unit of measurement is the Relative Fluorescence Unit (RFU). The cytotoxicity of the compounds was calculated based on the percentage of compound RFUs measured (Experimental) in comparison to the RFU of the DMSO treated cells as those that were completely lysed (Maximum LDH Release). […]
The cytotoxicity of the broad agent hit compounds was examined in differentiated human THP-1, a human acute monocytic leukemia cell line and A549, a human lung adenocarcinoma epithelial cell line. […] Compounds were assessed at varying concentrations of 0, 260, 290, 300, and 570 μM for compounds 7, 11, 8, and 3, respectively, for the cytotoxicity assays. […]

Cn1sc(Cl)c(C#N)c1=O [Compound 3, 5-chloro-2-methyl-3-oxo-1,2-thiazole-4-carbonitrile]
cytotoxicity (LDH) (57 μM): 60% | cytotoxicity (LDH), change against 57 μM (570 μM): decreased
